In patent publication US4207326A, “Antimicrobial quaternary pyrazole derivatives” (Cilag-Chemie A.G., priority 1979, dated 1980):
Like-named read-outs stand apart in the source and are kept apart here.

Columns and labels:
M. canis = assay: Antifungal activity: Minimum Inhibitory Concentration; assay type: cell-based, Microsporum canis NCPF 351; details: M. canis, 27° C., one week; for MIC: Microsporum canis, read-out: Minimum Inhibitory Concentration
Procedure: (§1) The antimicrobial activity was determined by inoculation of the test microorganism into suitable growth media containing solutions of the compounds at concentrations of 100, 50, 10, 5, 1.0, 0.5 and 0.1 μg/ml. The reference antibiotics used were Gentamicin for the antibacterial tests and Amphotericin B for the antimycotic and antifungal tests. After incubation the antimicrobial activity was recorded as the Minimal Inhibitory Concentration (M.I.C.), i.e., the lowest concentration preventing macroscopically visible growth, for each test compound against each organism.
(§2) An initial solution of each formula (I) compound to be tested in sterile distilled water was prepared at a concentration of 1000 μg/ml. With appropriate dilutions using sterile distilled water, additional solutions were prepared at concentrations of 500, 100, 50, 10, 5 and 1 μg/ml.
(§3) The A. corymbifera, A. fumigatus, S. schenkii, T. rubrum, T. mentagrophytes, M. canis and P. verrucosa strains were all maintained on Sabouraud-Dextrose Agar (Oxoid CM 41) by incubating for 14 days at 27° C. To prepare the inocula 30 ml volumes of Sabouraud-Liquid medium (Oxoid CM 147) were inoculated from the agar cultures and incubated at 27° C. until heavy uniform growth resulted. The mycelial growth was then broken up by shaking with glass beads.
(§4) 1 Ml aliquots were removed from each of the cultures for the purpose of making viable counts and the cultures were then held at 4° C. The viable counts were made by preparing serial ten-fold dilutions of the cultures in sterile physiological saline and spreading on plates of Sabouraud-Dextrose Agar (Oxoid CM 41) which were then incubated at 27° C. for 14 days. When the viable counts had confirmed that each of the inocula contained approximately 10^6 colony forming units (C.F.U.) per ml the cultures were withdrawn from the refrigerator and used as the inocula for the tests.
(§5) (c) For the tests on each of the remaining seven strains and each of the test and reference compounds, a series of 8 tubes containing 4.5 ml volumes of Sabouraud-Liquid Medium (Oxoid CM 147) were prepared. To 7 of these were added 0.5 ml volumes of the final solutions of the test compounds, giving final concentrations in the broths of 100, 50, 10, 5, 1.0, 0.5 and 0.1 μg/ml. To the eighth tube in each series was added 0.5 ml of the solvent used and diluted as for the preparation of the 500 μg/ml solution of the compound. This tube was used as a growth control. The tubes were then inoculated with 0.1 ml aliquots of the inocula prepared as in "(b) Fungi" above. The tubes were then incubated at 27° C. with continuous shaking for a period of one week. The tubes were then examined for evidence of growth as shown by the presence of mycelial growth in the medium and the lowest concentration of the test compound which prevented fungal growth was recorded as the Minimal Inhibitory Concentration. This test procedure was carried out on two separate days.

S. aureus = assay: Antibacterial activity: Minimum Inhibitory Concentration; assay type: cell-based, Staphylococcus aureus ATCC 6538; details: Staphylococcus aureus, 24 hours
Procedure: as §1, §2
(§6) They were cultured and maintained on Tryptone Soy Agar (Oxoid CM 131), with the addition of 10% horse blood for the S. pyogenes.
(§7) To prepare the organisms as inocula for the test, slopes of this medium were streaked with the organisms and incubated at 37° C. for 24 hours. 4.5 Ml volumes of Brian-Heart Infusion Broth (Oxoid CM 225) were then inoculated with a platinum loop from the agar slope cultures and incubated for 24 hours at 37° C. The final inocula were then prepared by adding 0.1 ml aliquots of the Brain-Heart Infusion Broth cultures to 100 ml volumes of sterile physiological saline.
(§8) (a) For the test on each of the bacterial strains and each of the test and reference compounds, a series of 8 tubes containing 4.5 ml volumes of Brain-Heart Infusion Broth (Oxoid CM 225) were prepared. To 7 of these were added 0.5 ml volumes of the final solutions of the test compouns, giving final concentrations in the broths of 100, 50, 10, 5, 1.0, 0.5 and 0.1 μg/ml. To the eighth tube in each series was added 0.5 ml of the solvent used and diluted as for the preparation of the 1000 μg/ml solution of the compound. This tube was used as the growth control. The tubes were inoculated with 0.02 ml aliquots of the inocula prepared in accordance with "(a) Bacteria" above, and incubated at 37° C. for 24 hours. The tubes were then examined for evidence of bacterial growth as shown by turbidity of the medium and the lowest concentration of the test compound which prevented bacterial growth was recorded as the Minimal Inhibitory Concentration. This test procedure was carried out on two separate days.

E. coli = assay: as above; assay type: cell-based, Escherichia coli ATCC 8739; details: Escherichia coli, 24 hours
Procedure: as §1, §2, §6, §7, §8

P. aeruginosa = assay: as above; assay type: cell-based, Pseudomonas aeruginosa ATCC 9027; details: Pseudomonas aeruginosa, read-out: Minimum Inhibitory Concentration
Procedure: as §1, §2, §6, §7, §8

C. albicans = assay: Antimycotic activity: Minimum Inhibitory Concentration; assay type: cell-based, Candida albicans ATCC 10231; details: for MIC: Candida albicans
Procedure: as §1, §2
(§9) The two species, C. albicans and C. tropicalis, were maintained on Sabouraud-Dextrose Agar (Oxoid CM41) and cultures for the preparation of the inoculum were incubated on this agar at 37° C. for 48 hours. 4.5 Ml volumes of citric acid-phosphate buffer pH 5.5 plus Yeast-Nitrogen Base (Difco 0392-15) were then inoculated from the agar cultures and incubated at 37° C. for 48 hours. 0.1 Ml aliquots of these cultures were then added to 100 ml volumes of sterile physiological saline to give the final inocula.
(§10) (b) For the tests on each of the C. albicans, C. tropicalis and C. neoformans strains and each of the test and reference compounds, a series of 8 tubes containing 4.5 ml volumes of citric acid-phosphate buffer pH 5.5 plus Yeast-Nitrogen Base (Difco 0392-15) were prepared. To 7 of these were added 0.5 ml volumes of the final solutions of the test compounds, giving final concentrations in the broths of 100, 50, 10, 5, 1.0, 0.5 and 0.1 μg/ml. To the eighth tube in each series was added 0.5 ml of the solvent used and diluted as for the preparation of the 1000 μg/ml solution of the compound. This tube was used as the growth control. The tubes were then inoculated with 0.1 ml aliquots of the inocula prepared as in "(b) Fungi" above. The tubes inoculated with the C. albicans and C. tropicalis were inoculated at 37° C. for 72 hours and the tubes inoculated with the C. neoformans straim were incubated at 30° C. for 72 hours. […] The tubes were then examined for evidence of growth as shown by turbidity of the medium and the lowest concentration of the test compound which prevented fungal growth was recorded as the Minimal Inhibitory Concentration. This test procedure was carried out on two separate days.

C. tropicalis = assay: as above; assay type: cell-based, Candida tropicalis NCPF 3111; details: Candida tropicalis, pH 5.5, 37° C., 72 hours
Procedure: as §1, §2, §9, §10

P. verrucosa = assay: Antifungal activity: Minimum Inhibitory Concentration; assay type: cell-based, Phialophore verrucosa NCPF 1119; details: P. verrucosa, 27° C., one week; for MIC: Phialophora verrucosa, read-out: Minimum Inhibitory Concentration
Procedure: as §1, §2, §3, §4, §5

[1] = P. aeruginosa, Day 1, 37° C., 24 hours
[2] = P. aeruginosa, Day 2, 37° C., 24 hours
[3] = pH 5.5, C. albicans, Day 1, pH 5.5, 37° C., 72 hours, read-out: Minimum Inhibitory Concentrations
[4] = pH 5.5, C. albicans, Day 2, pH 5.5, 37° C., 72 hours, read-out: Minimum Inhibitory Concentrations
[5] = pH 5.5, C. tropicalis, Day 1, read-out: Minimum Inhibitory Concentrations
[6] = pH 5.5, C. tropicalis, Day 2, read-out: Minimum Inhibitory Concentrations

For CCCCCCCCCCCCCCCC[n+]1c(C)cc(C)n1C.Cc1ccc(S(=O)(=O)[O-])cc1 [Example 6-C, 1-hexadecyl-2,3,5-trimethylpyrazolium p-toluene sulfonate], which “Minimum Inhibitory Concentration” value (M. canis; Day 2) is on record?
The value was 5 µg/mL.

And the MIC (S. aureus; Day 1, 37° C.)?
Its MIC is 0.5 µg/mL.

What about the MIC (S. aureus; Day 2, 37° C.) of the same compound?
Its MIC is 0.5 µg/mL.

And the MIC (E. coli; Day 1, 37° C.)?
Its MIC is 10 µg/mL.

And the MIC (E. coli; Day 2, 37° C.)?
Its MIC is 10 µg/mL.

What about the MIC (P. aeruginosa; 24 h) of the same compound?
Its MIC is 5 µg/mL.

And the MIC (P. aeruginosa)?
Its MIC is 10 µg/mL.

And the “Minimum Inhibitory Concentrations” value (C. albicans; C. albicans, Day 2, pH 5.5, 37° C., 72 hours)?
The value was 5 µg/mL.

And the MIC (C. albicans; pH 5.5, read-out: Minimum Inhibitory Concentrations)?
The MIC was 5 µg/mL.

What about the MIC (C. tropicalis; pH 5.5, read-out: Minimum Inhibitory Concentrations, C. tropicalis, Day 1) of the same compound?
The MIC was 5 µg/mL.

And the “Minimum Inhibitory Concentration” value (P. verrucosa; Day 2)?
The value was 5 µg/mL.

What does the source list for CCCCCCCCCCCCCC[n+]1c(C)cc(C)n1Cc1ccc([N+](=O)[O-])cc1.[Br-] [Example 6-D, 3,5-dimethyl-2(4-nitrobenzyl)-1-tetradecyl-pyrazolium bromide]?
MIC (M. canis; Day 1): 10 µg/mL; MIC (M. canis; Day 2): 5 µg/mL; MIC (S. aureus; Day 1, 37° C.): 1 µg/mL; MIC (S. aureus; Day 2, 37° C.): 0.5 µg/mL; MIC (E. coli; Day 1, 37° C.): 50 µg/mL; MIC (E. coli; Day 2, 37° C.): 100 µg/mL; MIC (P. aeruginosa; [1]): 100 µg/mL; MIC (P. aeruginosa; [2]): 50 µg/mL; MIC (C. albicans; [3]): 10 µg/mL; MIC (C. albicans; [4]): 5 µg/mL; MIC (C. tropicalis; [5]): 5 µg/mL; MIC (C. tropicalis; [6]): 5 µg/mL; MIC (P. verrucosa; Day 1): 10 µg/mL; MIC (P. verrucosa; Day 2): 10 µg/mL

CCCCCCCCCCCCCCCCn1c(C)cc(C)[n+]1C [Example 2, 1-hexadecyl-2,3,5-trimethyl-pyrazolium methosulfate] was tested. Which MIC (M. canis; Day 1) did it give?
Its MIC is 10 µg/mL.

What about the MIC (M. canis; Day 2) of the same compound?
Its MIC is 5 µg/mL.

And the MIC (S. aureus; Day 1, 37° C.)?
Its MIC is 0.5 µg/mL.

And the MIC (S. aureus; Day 2, 37° C.)?
Its MIC is 0.5 µg/mL.

And the MIC (E. coli; Day 1, 37° C.)?
The MIC was 10 µg/mL.

What about the MIC (E. coli; Day 2, 37° C.) of the same compound?
The MIC was 5 µg/mL.

And the MIC (P. aeruginosa; [1])?
Its MIC is 10 µg/mL.

And the MIC (P. aeruginosa; [2])?
Its MIC is 5 µg/mL.

And the MIC (C. albicans; [3])?
Its MIC is 1 µg/mL.

What about the MIC (C. albicans; [4]) of the same compound?
The MIC was 1 µg/mL.

What about the MIC (C. tropicalis; [5]) of the same compound?
The MIC was 1 µg/mL.

And the MIC (C. tropicalis; [6])?
The MIC was 0.5 µg/mL.

What about the MIC (P. verrucosa; Day 1) of the same compound?
Its MIC is 5 µg/mL.

And the MIC (P. verrucosa; Day 2)?
Its MIC is 10 µg/mL.

With CCCCCCCCCCCCCCCCn1ccc[n+]1C [Example 3-D, 1-hexadecyl-2-methyl-pyrazolium methosulfate] as the compound, how does the MIC (M. canis; Day 1) read?
The MIC was 5 µg/mL.

And the MIC (M. canis; Day 2)?
Its MIC is 5 µg/mL.

What about the MIC (S. aureus; Day 1, 37° C.) of the same compound?
Its MIC is 0.5 µg/mL.

And the MIC (S. aureus; Day 2, 37° C.)?
The MIC was 0.5 µg/mL.

And the MIC (E. coli; Day 1, 37° C.)?
The MIC was 10 µg/mL.

What about the MIC (E. coli; Day 2, 37° C.) of the same compound?
The MIC was 5 µg/mL.

What about the MIC (P. aeruginosa; [1]) of the same compound?
The MIC was 50 µg/mL.

What about the MIC (P. aeruginosa; [2]) of the same compound?
Its MIC is 10 µg/mL.

And the MIC (C. albicans; [3])?
Its MIC is 1 µg/mL.

And the MIC (C. albicans; [4])?
Its MIC is 1 µg/mL.

And the MIC (C. tropicalis; [5])?
Its MIC is 0.5 µg/mL.

And the MIC (C. tropicalis; [6])?
Its MIC is 0.5 µg/mL.

What about the MIC (P. verrucosa; Day 1) of the same compound?
The MIC was 5 µg/mL.

What about the MIC (P. verrucosa; Day 2) of the same compound?
Its MIC is 5 µg/mL.
